This is an account of results in ChEMBL document CHEMBL1201862, “PubChem BioAssay data set” (2004).

Test systems include A549; BT-549; DU-145; EKVX; HL-60; HOP-62; HOP-92; Hs-578T; K562; KM12; LOX IMVI; MCF7; MDA-MB-435; NCI-H23; OVCAR-4; RXF 393; SW-620; T47D; UACC-257; A498.
Common to all, as to experiment: growth of human tumour cells (NCI), 48 h

Each structure is given as a SMILES string.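 Each compound was tested at five concentrations against cells in 96-well plates for 48 hours. GI50: concentration for 50% inhibition of growth.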 Activity calls are given as the source filed them. No stated cut-off is given here; in the data, active = GI50 up to about 1.1 µM and inactive = higher.

For `Cc1ccc(C2SC(=N)Nc3c2c(C)nn3C(=O)c2ccc(Cl)cc2)cc1` (stereo not drawn), the GI50 in the experiment with A549, in the experiment on BT-549, with DU-145, with EKVX, in the experiment on HL-60 and in the experiment on HOP-62 was > 10 µM (inactive) each time. Besides, the GI50 in the experiment on HOP-92, in the experiment with Hs-578T, in the experiment with K562, with KM12, with LOX IMVI and in the experiment with MCF7 was > 10 µM (inactive) in each case. Moreover, the GI50 with MDA-MB-435, in the experiment on NCI-H23, with OVCAR-4, with RXF 393, with SW-620 and with T47D was > 10 µM (inactive) each time. Further, the GI50 in the experiment with UACC-257 was > 10 µM (inactive).

`Nc1nc(S)c2c(N)n[nH]c2c1C(=O)Nc1ccc(Cl)cc1`: the GI50 was > 100 µM (inactive) in the experiment on A498; > 100 µM (inactive) in the experiment with A549; > 100 µM (inactive) in the experiment with BT-549; 47 µM (inactive) in the experiment with DU-145; > 100 µM (inactive) with EKVX; 21.2 µM (inactive) in the experiment with HL-60. In addition, the GI50 was > 100 µM (inactive) in the experiment on HOP-92; > 100 µM (inactive) in the experiment on Hs-578T; 91.6 µM (inactive) with K562; 21.4 µM (inactive) in the experiment with KM12; 5.41 µM (inactive) with LOX IMVI; > 100 µM (inactive) in the experiment with MCF7. Further, the GI50 in the experiment with MDA-MB-435 is 84.5 µM (inactive); with OVCAR-4, 64.4 µM (inactive); in the experiment on RXF 393, > 100 µM (inactive); in the experiment on SW-620, 29.6 µM (inactive); in the experiment with T47D, 44.6 µM (inactive); in the experiment on UACC-257 it was 77.1 µM (inactive).

For `COC(=O)[C@H](C)[C@@H]1CC[C@](C)(CCC2=C(C)CCCC2(C)C)OO1`, the GI50 was > 25 µM (inactive) with A549; > 25 µM (inactive) in the experiment on BT-549; > 25 µM (inactive) in the experiment on DU-145; > 25 µM (inactive) in the experiment on EKVX; 12 µM (inactive) in the experiment with HL-60; > 25 µM (inactive) in the experiment on HOP-62. Also, the GI50 in the experiment on HOP-92 was > 25 µM (inactive); in the experiment with Hs-578T, > 25 µM (inactive); with K562 it was 14.3 µM (inactive); in the experiment with KM12, > 25 µM (inactive); in the experiment on LOX IMVI it was 8.02 µM (inactive); in the experiment on MCF7, > 25 µM (inactive). Further, the GI50 in the experiment with MDA-MB-435, in the experiment on NCI-H23, in the experiment on OVCAR-4, with RXF 393, in the experiment on SW-620 and with T47D was > 25 µM (inactive) each time. Besides, the GI50 in the experiment on UACC-257 is > 25 µM (inactive).

For `O=C1CSC(=S)N1c1ccc(F)cc1F`, the GI50 in the experiment on A498 is 67.9 µM (inactive); in the experiment on A549, 61.9 µM (inactive); with BT-549, 39.6 µM (inactive); in the experiment with DU-145, > 100 µM (inactive); in the experiment on EKVX, 94.8 µM (inactive); with HOP-62, > 100 µM (inactive). Further, the GI50 is 30.2 µM (inactive) with HOP-92; 41.3 µM (inactive) in the experiment with Hs-578T; > 100 µM (inactive) in the experiment with KM12; 36.5 µM (inactive) with LOX IMVI; 21.7 µM (inactive) in the experiment with MCF7; 35.6 µM (inactive) in the experiment on MDA-MB-435. Further, the GI50 is 46.5 µM (inactive) with NCI-H23; 49.2 µM (inactive) in the experiment on OVCAR-4; 72.9 µM (inactive) in the experiment with RXF 393; > 100 µM (inactive) in the experiment on SW-620; 30 µM (inactive) in the experiment with T47D; 43.8 µM (inactive) in the experiment on UACC-257.

For the compound `Cn1c2ccccc2n2c3nc4ccccc4nc3c(C#N)c12`, the GI50 is 6.44 µM (inactive) with A498; > 100 µM (inactive) in the experiment on A549; > 100 µM (inactive) with BT-549; > 100 µM (inactive) in the experiment on DU-145; > 100 µM (inactive) in the experiment with EKVX; > 87.9 µM (inactive) in the experiment on HL-60. The GI50 was 10 µM (inactive) in the experiment on HOP-62; > 100 µM (inactive) in the experiment on HOP-92; 56 µM (inactive) in the experiment with Hs-578T; 65.3 µM (inactive) in the experiment with K562; 9.44 µM (inactive) in the experiment on KM12; > 100 µM (inactive) with LOX IMVI. Moreover, the GI50 with MCF7 is > 75 µM (inactive); in the experiment on MDA-MB-435 it was > 85.7 µM (inactive); with NCI-H23, > 96.8 µM (inactive); with OVCAR-4, > 71.8 µM (inactive); with RXF 393, > 42.3 µM (inactive); in the experiment on SW-620 it was 74.8 µM (inactive). Further, the GI50 in the experiment with T47D is 21.4 µM (inactive); with UACC-257, > 82.6 µM (inactive).

For `CCCCCCCC1(N=[N+]=[N-])C(=O)Nc2ccccc2C1=O` (stereo not drawn), the GI50 was 0.971 µM (active) with A498; 14.8 µM (inactive) in the experiment with A549; 16.7 µM (inactive) in the experiment on BT-549; 14.9 µM (inactive) in the experiment on DU-145; > 10 µM (inactive) in the experiment on HL-60; 17.7 µM (inactive) in the experiment on HOP-62. Further, the GI50 is 13.6 µM (inactive) in the experiment on HOP-92; 17.5 µM (inactive) with Hs-578T; 16.4 µM (inactive) with K562; 22.5 µM (inactive) in the experiment with KM12; 13.3 µM (inactive) in the experiment on LOX IMVI; 19.1 µM (inactive) in the experiment with MCF7. Besides, the GI50 in the experiment with MDA-MB-435 is 18.2 µM (inactive); in the experiment with NCI-H23, 18.2 µM (inactive); with OVCAR-4, 16.2 µM (inactive); with RXF 393 it was 12.6 µM (inactive); in the experiment on SW-620, 12.4 µM (inactive); with T47D it was 14.6 µM (inactive). Besides, the GI50 in the experiment with UACC-257 is 21 µM (inactive).

With `N#Cc1ccc(N2CCOCC2)cc1`, the GI50 is 42.8 µM (inactive) in the experiment on A498; > 100 µM (inactive) in the experiment with A549; 24.9 µM (inactive) in the experiment with BT-549; > 100 µM (inactive) with DU-145; > 100 µM (inactive) in the experiment with EKVX; > 100 µM (inactive) in the experiment on HL-60. The GI50 in the experiment with HOP-62 was > 100 µM (inactive); in the experiment on HOP-92, > 100 µM (inactive); in the experiment on Hs-578T, > 100 µM (inactive); in the experiment with KM12 it was > 100 µM (inactive); with LOX IMVI, 23 µM (inactive); with MCF7 it was > 100 µM (inactive). For the same compound, the GI50 in the experiment on MDA-MB-435 was > 100 µM (inactive); in the experiment with NCI-H23, 80.5 µM (inactive); with OVCAR-4 it was > 100 µM (inactive); in the experiment on RXF 393, > 100 µM (inactive); in the experiment on SW-620 it was > 100 µM (inactive); in the experiment with T47D it was > 100 µM (inactive). Further, the GI50 with UACC-257 is > 100 µM (inactive).

In the case of `CC(C)(C)OC(=O)N(O)CCCn1cnc2c(NC3CC3)ncnc21`, the GI50 with A498, with A549, in the experiment on BT-549, with DU-145, in the experiment with EKVX and in the experiment with HOP-62 was > 100 µM (inactive) in each case. Further, the GI50 in the experiment on HOP-92, in the experiment with Hs-578T, in the experiment with K562, in the experiment on KM12, with LOX IMVI and with MCF7 was > 100 µM (inactive) throughout. For the same compound, the GI50 in the experiment on MDA-MB-435, in the experiment on NCI-H23, in the experiment with OVCAR-4, in the experiment on RXF 393, with SW-620 and with T47D was > 100 µM (inactive) each time. Further, the GI50 in the experiment on UACC-257 is > 100 µM (inactive).

Regarding `O=S1(=O)c2ccccc2-c2nccc3ccnc1c23`, the GI50 with A498 is 27.5 µM (inactive); with BT-549, 3.77 µM (inactive); with DU-145 it was 11.3 µM (inactive); with EKVX it was 15.4 µM (inactive); in the experiment with HL-60, 4.76 µM (inactive); in the experiment with HOP-62 it was 40.7 µM (inactive). Further, the GI50 with HOP-92 was 24.3 µM (inactive); in the experiment with Hs-578T it was 32.1 µM (inactive); in the experiment with K562 it was 4.33 µM (inactive); in the experiment on KM12, 22.8 µM (inactive); with LOX IMVI, 12.6 µM (inactive); in the experiment on MCF7, 6.4 µM (inactive). Besides, the GI50 in the experiment on MDA-MB-435 was 11.9 µM (inactive); in the experiment with NCI-H23, 14.6 µM (inactive); with OVCAR-4, 37.9 µM (inactive); in the experiment with RXF 393 it was 34 µM (inactive); in the experiment on SW-620, 7.23 µM (inactive); with T47D, 29.4 µM (inactive). Besides, the GI50 in the experiment on UACC-257 is 28.5 µM (inactive).

Take `CC[C@@]1(O)C(=O)OCc2c1cc1n(c2=O)Cc2c-1nc1ccccc1c2/C=N/NC(=O)c1ccc(N)cc1`: the GI50 is 0.33 µM (active) in the experiment with A498; 0.578 µM (active) with A549; 0.391 µM (active) in the experiment on BT-549; 0.0383 µM (active) in the experiment with DU-145; 0.0327 µM (active) with HL-60; 0.0333 µM (active) in the experiment on HOP-62. Moreover, the GI50 was 0.0447 µM (active) in the experiment with HOP-92; > 100 µM (inactive) in the experiment with Hs-578T; 0.075 µM (active) with K562; 9.4 µM (inactive) in the experiment with KM12; 0.0273 µM (active) with LOX IMVI; < 0.016 µM (active) with MCF7. For the same compound, the GI50 in the experiment on MDA-MB-435 is 0.197 µM (active); with NCI-H23 it was 0.0798 µM (active); in the experiment on OVCAR-4, 3.73 µM (inactive); in the experiment on RXF 393 it was < 0.0322 µM (active); with SW-620, 0.0796 µM (active); with T47D it was < 0.01 µM (active). In addition, the GI50 in the experiment with UACC-257 was 6.44 µM (inactive).

With `Cc1cc(=O)oc2cc(SC(=O)N(C)C)ccc12`, the GI50 with A498 was > 100 µM (inactive); with A549, > 100 µM (inactive); in the experiment on BT-549 it was > 100 µM (inactive); in the experiment on DU-145, > 100 µM (inactive); with EKVX it was 61 µM (inactive); with HL-60, > 100 µM (inactive). Besides, the GI50 with HOP-62, with HOP-92, with Hs-578T, in the experiment with KM12, with LOX IMVI and with MCF7 was > 100 µM (inactive) each time. In addition, the GI50 in the experiment with MDA-MB-435, in the experiment with NCI-H23, in the experiment on OVCAR-4, in the experiment on RXF 393, in the experiment on SW-620 and with T47D was > 100 µM (inactive) throughout. Besides, the GI50 in the experiment on UACC-257 is > 100 µM (inactive).
